Molecules are shown by their SMILES. Where two headings read alike, the source gives them in different places.

This is an account of results in US20030207924A1, “Compounds that modulate PPAR activity and methods of preparation” (priority 2002, published 2003).

Assay [1] has as its target T1, hPPARβ chimeric receptor (Homo sapiens, UniProt Q03181).
T1 construct: "expression plasmids encoding hPPARα, hPPARβ or mPPARγ chimeric receptors"
T1 sequence (Q03181 171-441 limits assumed): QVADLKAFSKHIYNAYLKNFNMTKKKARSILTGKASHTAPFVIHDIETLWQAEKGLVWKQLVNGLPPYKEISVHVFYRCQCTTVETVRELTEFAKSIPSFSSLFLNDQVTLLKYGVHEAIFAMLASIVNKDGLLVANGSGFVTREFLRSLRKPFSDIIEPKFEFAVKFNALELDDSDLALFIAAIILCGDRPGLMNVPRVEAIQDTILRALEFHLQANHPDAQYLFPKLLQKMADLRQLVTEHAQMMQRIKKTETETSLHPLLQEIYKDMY
In words: Transient transfection assay in HepG2 cells, Gal4-hPPARβ chimeric receptor, luciferase reporter (Test A). It counts as cell-based. Here is the method: (§1) 1. Test A. Transient Transfections Assay Using the HepG2 Hepatoma Cell Line.
(§2) HepG2 cells were transiently transfected with an expression plasmids encoding hPPARα, hPPARβ or mPPARγ chimeric receptors and a reporter containing the yeast upstream activating sequence (UAS) upstream of the viral E1B promoter controlling a luciferase reporter gene. In addition, the plasmid pRSVβ-gal was used to control for transfection efficiency. HepG2 cells were grown in DMEM supplemented with 10% FBS and […] non-essential amino acid. On the first day, cells were split into 100 mm dishes at 2.5×10^6/dish and incubated overnight at 37° C./5% CO2. On the second day the cells were transiently transfected with plasmid DNA encoding a chimeric receptor, the luciferase reporter gene; and β-gal. For each 100 mm dish, 15 μg of lucifease reporter (PG5E1b) DNA, 15 μg of Gal4-PPAR chimeric receptor DNA, and 1.5 μg of β-gal plasmid DNA were mixed with 1.4 ml of opti-MEM in the tube. 28 μl of LipoFectamine-2000 reagent was added to 1.4 ml of opti-MEM in the tube, and incubate for 5 min at RT. The diluted Lipofectamine-2000 reagent was combined with the DNA mixture, and incubate for 20 min at RT. After fresh medium was added to each 100 mm dish of cells, 2.8 ml of Lipofectamine2000-DNA mixture was added dropwise to the 100 mm dish containing 14 ml of medium, and incubate 37° C. overnight. On day three cells were trypsinized off the 100 mm dishes and re-plated on 96 well plates. Cells were plated at 2.5×10^4 cells per well in 150 μl of media and 50 μl of compound diluted by media was added. The test compounds added were in the range from 50 μM to 50 pM. After addition of compounds, the plates were incubated at 37° C. for 24 hours. Subsequently cells were washed with once with 100 μl of PBS, lysed, and processed for measuring luciferase and β-gal activity using Dual-Light luciferase kit from Tropix®, according to the manufacturer's recommendations, on an EG&G Bethold MicroLumat LB96P luminometer. EC50 values were obtained using the GraphPad Prism™ program.
For orientation: A reporter such as luciferase makes a cellular process visible.

The target in assay [2] is T2, hPPARα chimeric receptor (Homo sapiens, UniProt Q07869).
T2 construct: "expression plasmids encoding hPPARα, hPPARβ or mPPARγ chimeric receptors"
T2 sequence (Q07869 200-468 limits assumed): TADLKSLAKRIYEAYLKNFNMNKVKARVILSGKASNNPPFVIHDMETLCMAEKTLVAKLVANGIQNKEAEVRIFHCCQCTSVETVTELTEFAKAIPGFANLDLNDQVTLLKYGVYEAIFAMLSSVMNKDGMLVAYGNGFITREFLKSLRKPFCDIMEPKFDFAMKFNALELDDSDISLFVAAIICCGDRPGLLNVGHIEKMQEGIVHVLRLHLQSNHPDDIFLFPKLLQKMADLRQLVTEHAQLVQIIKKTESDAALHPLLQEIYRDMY
Nature of the assay: Transient transfection assay in HepG2 cells, Gal4-hPPARα chimeric receptor, luciferase reporter (Test A). It counts as cell-based. Here is the method: as §1
as §2, with “program. […] Accordingly, the compounds of the present invention should find considerable therapeutic applications for hypercholesterolemia and hyperlipidemia.” for “program.”

[3] abbreviates: HepG2 cells, hPPARα chimeric receptor, luciferase reporter, 24 hours, read-out: EC50-α (Hep G2-hAlpha EC50).

Take `COc1cc(OC)c(SCc2sc(-c3ccc(C(F)(F)F)cc3)nc2C)cc1CCC(=O)O` [Example 19, 3-{2,4-Dimethoxy-5-[4-methyl-2-(4-trifluoromethyl-phenyl)-thiazol-5-ylmethylsulfanyl]-phenyl}-propionic acid]: the EC50 in assay [1] amounted to 1120 nM; in assay [2] (setting [3]), 1.54 µM.
On the same counts, the results for `COc1cc(SCc2sc(-c3ccc(C(F)(F)F)cc3)nc2C)c(OC)cc1CCC(=O)O` [Example 20, 3-{2,5-Dimethoxy-4-[4-methyl-2-(4-trifluoromethyl-phenyl)-thiazol-5-ylmethylsulfanyl]-phenyl}-propionic acid] are 34.9 nM and 0.146 µM.
Turning to `COc1cc(OC)c(SCc2sc(-c3ccc(C(F)(F)F)cc3)nc2C)cc1CC(=O)O` [Example 21, {2,4-Dimethoxy-5-[4-methyl-2-(4-trifluoromethyl-phenyl)-thiazol-5-ylmethylsulfanyl]}-acetic acid], the EC50 is 1250 nM in assay [1] and 0.442 µM in assay [2] (setting [3]).
Turning to `Cc1nc(-c2ccc(C(F)(F)F)cc2)sc1CSc1ccc(CC(C(=O)O)n2cccc2)cc1` (centres unmarked) [Example 24, 3-{4-[4-Methtyl-2-(4-trifluoromethyl-phenyl)-thiazol-5-ylmethylsulfanyl]-phenyl}-2-pyrrol-1-yl-propionic acid], in assay [1] (HepG2 cells, hPPARβ chimeric receptor, luciferase reporter, 24 hours), the “EC50-β (Hep G2-hBeta EC50)” value amounted to 2000 µM. Further, the EC50 in assay [2] (setting [3]) was 2000 µM.
Turning to `Cc1cc(SCc2sc(-c3ccc(C(F)(F)F)cc3)nc2C)c(F)cc1OCC(=O)O` [Example 26, 2-[5-fluoro-2-methyl-4-({4-methyl-2-[4-(trifluoromethyl)phenyl](1,3-thiazol-5-yl)}methylthio)phenoxy]acetic acid], the EC50 in assay [1] was determined as 0.07 nM; in assay [2] (setting [3]), 0.17 µM.
With `Cc1cc(SCc2sc(-c3ccc(C(F)(F)F)cc3)nc2C)c(Cl)cc1OCC(=O)O` [Example 31, {5-Chloro-2-methyl-4-[4-methyl-2-(4-trifluoromethyl-phenyl)-thiazol-5-ylmethylsulfanyl]-phenoxy}-acetic acid], the figures for the EC50 in assay [1] and in assay [2] (setting [3]) were 105 nM and 2.05 µM, respectively.
As for `COCc1cc(OCC(=O)O)c(C)cc1SCc1sc(-c2ccc(C(F)(F)F)cc2)nc1C` [Example 32, 2-[5-(methoxymethyl)-2-methyl-4-({4-methyl-2-[4-(trifluoromethyl)phenyl](1,3-thiazol-5-yl)}methylthio)phenoxy]acetic acid], the EC50 in assay [1] turned out to be 649 nM; in assay [2], 0.625 µM.

One may read the EC50 as the concentration at which the effect is half-maximal.
